Tested on: horses
Experiment: Alfaxalone/HPCD anesthesia in the horse
Protocol: In the first stage, two horses were anesthetized after heavy premedication with xylazine (0.6 mg/kg). […] Heart rate, respiratory rate, blood pressure, ECG and ventilation were monitored throughout the anesthesia period.
The same parameters as in the first stage were monitored.
Cardiopulmonary parameters were monitored as before.
To provide some comparison in the above stages, the two horses were anesthetized with thiamylal sodium (8 mg/kg) after the same premedication as before and a similar monitoring regime followed.
A third horse was obtained and the same regimen was followed as in the third stage, but three "top-ups" of one-third induction dose were administered at 10 minute intervals. Similar monitoring as above was continued.
Blood pressure was measured from an acutely placed antraarterial catheter and read through a transducer/digital readout system which included an ECG tracing oscilloscope.

CC(=O)[C@H]1CC[C@H]2[C@@H]3CC[C@H]4C[C@H](O)CC[C@]4(C)[C@H]3C(=O)C[C@]12C (stereo in doubt) [alfaxalone, 3α-hydroxy-5α-pregnane-11,20-dione]
recoveries classified as excellent (alfaxalone alone recoveries): Four of the five

C=CCC1(C(C)CCC)C(=O)N=C(S)NC1=O (stereo not drawn) [thiamylal, thiamylal sodium]
blood pressure effect (after xylazine premedication): the same effect

Cc1cccc(C)c1N=C1NCCCS1 [xylazine]
sedation (0.6 mg/kg i.v.): good sedation without ataxia
